The values that follow come from patent US7718652B2, “Substituted benzothiadiazinedioxide derivatives and methods of their use” (Wyeth LLC, priority 2006, dated 2010).

The test has as its target T1, human hNET (Homo sapiens, UniProt P23975).
T1 construct: expressed in transfected cells; host or cells: MDCK-Net6 (MDCK cells stably transfected)
Kind of test: Functional Norepinephrine (NE) Uptake Assay in MDCK-Net6 cells. Conditions: for IC50: MDCK-Net6 cells stably transfected with human hNET, 3H norepinephrine 16 nM; for inhibition at 10 µM: MDCK-Net6 cells, printed in the IC50 column where 50% inhibition was not exceeded, read-out: hNET Uptake, % inhibition at highest concentration tested. Format: cell-based. As for the experimental part:
MDCK-Net6 cells, stably transfected with human hNET (Pacholczyk, T., R. D. Blakely, and S. G. Amara, Nature, 1991, 350(6316): p. 350-4) were cultured in growth medium containing high glucose DMEM (Gibco, Cat. No. 11995), 10% FBS (dialyzed, heat-inactivated, US Bio-Technologies, Lot FBD1129HI) and 500 μg/ml G418 (Gibco, Cat. No. 10131). Cells were plated at 300,000 T75 flask and cells were split twice weekly.
Functional Norepinephrine (NE) Uptake Assay
On day 1, cells were plated at 3,000 cells/well in growth medium and maintained in a cell incubator (37° C., 5% CO2). On day 2, growth medium was replaced with 200 μl of assay buffer (25 mM HEPES; 120 mM NaCl; 5 mM KCl; 2.5 mM CaCl2; 1.2 mM MgSO4; 2 mg/ml glucose (pH 7.4, 37° C.)) containing 0.2 mg/ml ascorbic acid and 1 μM pargyline. For screening, 25 μl of compound in 4% […] was added directly to each well and the plate is incubated for 5 minutes at 37° C.
To initiate the norepinephrine reuptake, 16 nM (final concentration) of ^3H norepinephrine (specific activity; 40-80 Ci/mmol) in assay buffer was delivered in 25 μl aliquots to each well, and the plates were incubated for 5 minutes at 37° C. The reaction was aspirated from the plate and the cells washed with 250 μl of 50 mM Tris Buffer (4° C.). The plates were left to dry for 1 hour. The cells were lysed using 0.25 M NaOH solution then placed on a shake table and vigorously shaken for 10 minutes. After cell lysis, 100 μl of Microscint 20 (PerkinElmer; #87-051101) were added to the plates and the plates were sealed with film tape and replaced on the shake table for a minimum of 10 minutes. The plates were counted in a TopCount counter (PerkinElmer).
For screening single point determinations, each compound plate contains at least 3 control wells (maximum NE reuptake determinant) and 3 non-specific wells determined by adding 20 μM of desipramine (minimum NE reuptake determinant). Determination of active compounds are calculated using a Microsoft Excel spread sheet applying the following formula: % inhibition=[1−((mean cpm test compound wells−mean cpm non-specific wells)/(mean cpm control wells−mean cpm non-specific wells))]×100
For IC50 determination, raw cpm values were generated in a data file from the TopCount counter. The data was organized in Microsoft Excel and transferred into PRIZM graphing and statistical program, which calculates the estimated IC50 value. Calculation of IC50 values were made using non-linear regression analysis with a sigmoidal dose response with variable slope. The statistical program used wells containing ^3H norepinephrine only as the maximal NE reuptake determinant and wells containing ^3H norepinephrine plus 20 μM desipramine as the minimal NE reuptake determinant (non-specific determinant). Estimation of the IC50 value was completed on a log scale and the line was fit between the maximal and minimal NE reuptake values.

Each structure is given as a SMILES string. Counter-ions that a name gives are not always drawn.

T1 sequence (P23975 whole entry): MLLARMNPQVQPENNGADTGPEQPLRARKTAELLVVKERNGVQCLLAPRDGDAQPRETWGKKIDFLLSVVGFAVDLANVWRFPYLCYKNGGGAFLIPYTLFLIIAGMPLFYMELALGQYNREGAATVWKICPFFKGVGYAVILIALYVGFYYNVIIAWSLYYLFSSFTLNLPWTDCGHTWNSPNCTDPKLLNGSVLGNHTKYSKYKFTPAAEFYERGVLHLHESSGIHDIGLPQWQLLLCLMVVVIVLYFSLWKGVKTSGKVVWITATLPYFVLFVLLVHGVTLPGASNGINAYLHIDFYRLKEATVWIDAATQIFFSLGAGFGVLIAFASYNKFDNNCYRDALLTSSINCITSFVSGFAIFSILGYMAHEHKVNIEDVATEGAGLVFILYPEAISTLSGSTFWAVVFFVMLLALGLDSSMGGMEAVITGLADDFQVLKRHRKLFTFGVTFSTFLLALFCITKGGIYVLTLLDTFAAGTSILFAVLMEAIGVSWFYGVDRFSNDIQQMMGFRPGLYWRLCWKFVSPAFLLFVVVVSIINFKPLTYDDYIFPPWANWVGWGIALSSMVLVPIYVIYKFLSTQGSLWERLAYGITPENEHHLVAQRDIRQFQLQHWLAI

Regarding `CNCCCN1Cc2ccccc2N(c2ccccc2)S1(=O)=O` [Example 1, 3-(2,2-dioxido-1-phenyl-1,4-dihydro-3H-2,1,3-benzothiadiazin-3-yl)-N-methylpropan-1-amine hydrochloride], it took 129 nM to reach half-maximal inhibition (IC50).

As to `CNCCCN1Cc2ccccc2N(c2cccc(F)c2)S1(=O)=O` [Example 2, 3-[1-(3-fluorophenyl)-2,2-dioxido-1,4-dihydro-3H-2,1,3-benzothiadiazin-3-yl]-N-methylpropan-1-amine hydrochloride], the IC50 (in general, the concentration that inhibits the measured activity by half) is 628 nM.

`CNCCCN1Cc2ccccc2N(c2cccc(C)c2)S1(=O)=O` [Example 3, N-methyl-3-[1-(3-methylphenyl)-2,2-dioxido-1,4-dihydro-3H-2,1,3-benzothiadiazin-3-yl]propan-1-amine hydrochloride] had an IC50 of 1030 nM.

In the case of `CNCCCN1Cc2ccccc2N(c2cccc(OC)c2)S1(=O)=O` [Example 4, 3-[1-(3-methoxyphenyl)-2,2-dioxido-1,4-dihydro-3H-2,1,3-benzothiadiazin-3-yl]-N-methylpropan-1-amine hydrochloride], 792 nM corresponded to half-maximal inhibition (IC50).

Consider `CNCCCN1Cc2ccccc2N(c2ccc(Cl)cc2)S1(=O)=O` [Example 5, 3-[1-(4-chlorophenyl)-2,2-dioxido-1,4-dihydro-3H-2,1,3-benzothiadiazin-3-yl]-N-methylpropan-1-amine hydrochloride], for which the IC50 came out at 908 nM. This IC50 and that of the compound before are within 1.5-fold of each other.

With `CNCCCN1Cc2ccccc2N(c2ccc(F)c(Cl)c2)S1(=O)=O` [Example 6, 3-[1-(3-chloro-4-fluorophenyl)-2,2-dioxido-1,4-dihydro-3H-2,1,3-benzothiadiazin-3-yl]-N-methylpropan-1-amine hydrochloride], the IC50 worked out at 1500 nM.

In the case of `CNCCCN1Cc2ccccc2N(c2ccc(F)cc2)S1(=O)=O` [Example 7, 3-[1-(4-fluorophenyl)-2,2-dioxido-1,4-dihydro-3H-2,1,3-benzothiadiazin-3-yl]-N-methylpropan-1-amine hydrochloride], the IC50 came out at 492 nM.

For the compound `CNCCCN1Cc2ccccc2N(c2ccc(C)cc2)S1(=O)=O` [Example 8, N-methyl-3-[1-(4-methylphenyl)-2,2-dioxido-1,4-dihydro-3H-2,1,3-benzothiadiazin-3-yl]propan-1-amine hydrochloride], the midpoint of inhibition, the IC50, lay at 135 nM.

`CNCCCN1Cc2ccccc2N(c2ccc(OC)cc2)S1(=O)=O` [Example 9, 3-[1-(4-methoxyphenyl)-2,2-dioxido-1,4-dihydro-3H-2,1,3-benzothiadiazin-3-yl]-N-methylpropan-1-amine hydrochloride] registered an IC50 of 3550 nM.

`CNCCCN1Cc2ccccc2N(c2ccc(F)c(F)c2)S1(=O)=O` [Example 10, 3-[1-(3,4-difluorophenyl)-2,2-dioxido-1,4-dihydro-3H-2,1,3-benzothiadiazin-3-yl]-N-methylpropan-1-amine hydrochloride]: the IC50 worked out at 973 nM.

For the compound `CNCCN1Cc2ccccc2N(c2ccccc2F)S1(=O)=O` [Example 11, 2-[1-(2-fluorophenyl)-2,2-dioxido-1,4-dihydro-3H-2,1,3-benzothiadiazin-3-yl]-N-methylethanamine], the midpoint of inhibition, the IC50, lay at 200 nM. This IC50 lies about 4.9-fold lower than the previous one.

With `O=S1(=O)N(CCNC2CC2)Cc2ccccc2N1c1ccccc1F` [Example 12, N-{2-[1-(2-fluorophenyl)-2,2-dioxido-1,4-dihydro-3H-2,1,3-benzothiadiazin-3-yl]ethyl}cyclopropanamine], the IC50 was 2380 nM.

With `CNCCCN1Cc2ccccc2N(c2ccccc2F)S1(=O)=O` [Example 13, 3-[1-(2-fluorophenyl)-2,2-dioxido-1,4-dihydro-3H-2,1,3-benzothiadiazin-3-yl]-N-methylpropan-1-amine], half-maximal inhibition (IC50) required 29 nM.

`O=S1(=O)N(CCCNC2CC2)Cc2ccccc2N1c1ccccc1F` [Example 14, N-{3-[1-(2-fluorophenyl)-2,2-dioxido-1,4-dihydro-3H-2,1,3-benzothiadiazin-3-yl]propyl}cyclopropanamine] came in with an IC50 of 956 nM.

For `CNCCCCN1Cc2ccccc2N(c2ccccc2F)S1(=O)=O` [Example 15, 4-[1-(2-fluorophenyl)-2,2-dioxido-1,4-dihydro-3H-2,1,3-benzothiadiazin-3-yl]-N-methylbutan-1-amine], the IC50 turned out to be 38 nM.

`O=S1(=O)N(CCCCNC2CC2)Cc2ccccc2N1c1ccccc1F` [Example 16, N-{4-[1-(2-fluorophenyl)-2,2-dioxido-1,4-dihydro-3H-2,1,3-benzothiadiazin-3-yl]butyl}cyclopropanamine] gave an IC50 of 139 nM.

In turn, `CNCCN1Cc2cc(F)ccc2N(c2ccccc2F)S1(=O)=O` [Example 17, 2-[6-fluoro-1-(2-fluorophenyl)-2,2-dioxido-1,4-dihydro-3H-2,1,3-benzothiadiazin-3-yl]-N-methylethanamine] displayed an IC50 of 1410 nM.

Compound `O=S1(=O)N(CCNC2CC2)Cc2cc(F)ccc2N1c1ccccc1F` [Example 18, N-{2-[6-fluoro-1-(2-fluorophenyl)-2,2-dioxido-1,4-dihydro-3H-2,1,3-benzothiadiazin-3-yl]ethyl}cyclopropanamine] displayed an IC50 of 2870 nM. This IC50 is about 2-fold higher than that of the compound before.

Regarding `CNCCCN1Cc2cc(F)ccc2N(c2ccccc2F)S1(=O)=O` [Example 19, 3-[6-fluoro-1-(2-fluorophenyl)-2,2-dioxido-1,4-dihydro-3H-2,1,3-benzothiadiazin-3-yl]-N-methylpropan-1-amine], the half-maximal inhibitory concentration (IC50) came to 119 nM.

Take `O=S1(=O)N(CCCNC2CC2)Cc2cc(F)ccc2N1c1ccccc1F` [Example 20, N-{3-[6-fluoro-1-(2-fluorophenyl)-2,2-dioxido-1,4-dihydro-3H-2,1,3-benzothiadiazin-3-yl]propyl}cyclopropanamine]: it took 1750 nM to reach half-maximal inhibition (IC50). This IC50 is about 15-fold higher than that of the compound before.

Take `CNCCCCN1Cc2cc(F)ccc2N(c2ccccc2F)S1(=O)=O` [Example 21, 4-[6-fluoro-1-(2-fluorophenyl)-2,2-dioxido-1,4-dihydro-3H-2,1,3-benzothiadiazin-3-yl]-N-methylbutan-1-amine]: inhibition was half-maximal at 30 nM (IC50).

On to `O=S1(=O)N(CCCCNC2CC2)Cc2cc(F)ccc2N1c1ccccc1F` [Example 22, N-{4-[6-fluoro-1-(2-fluorophenyl)-2,2-dioxido-1,4-dihydro-3H-2,1,3-benzothiadiazin-3-yl]butyl}cyclopropanamine], for which the midpoint of inhibition, the IC50, lay at 177 nM.

Consider `CNC[C@@H](O)CCN1Cc2cc(F)ccc2N(c2ccccc2F)S1(=O)=O` [Example 23, (2S)-4-[6-fluoro-1-(2-fluorophenyl)-2,2-dioxido-1,4-dihydro-3H-2,1,3-benzothiadiazin-3-yl]-1-(methylamino)butan-2-ol], for which half-maximal inhibition (IC50) was put at 81 nM.

As to `CNC[C@@H](O)CCN1Cc2ccccc2N(c2ccccc2F)S1(=O)=O` [Example 24, (2S)-4-[1-(2-fluorophenyl)-2,2-dioxido-1,4-dihydro-3H-2,1,3-benzothiadiazin-3-yl]-1-(methylamino)butan-2-ol], the IC50 amounted to 95 nM.

Turning to `CNCCCN1c2ccccc2CN(c2ccccc2F)S1(=O)=O` [Example 25, 3-[3-(2-fluorophenyl)-2,2-dioxido-3,4-dihydro-1H-2,1,3-benzothiadiazin-1-yl]-N-methylpropan-1-amine], the inhibition at 10 µM amounted to 47%.

On to `CNCCN1c2ccccc2CN(c2ccccc2F)S1(=O)=O` [Example 26, 2-[3-(2-fluorophenyl)-2,2-dioxido-3,4-dihydro-1H-2,1,3-benzothiadiazin-1-yl]-N-methylethanamine], for which the inhibition at 10 µM was determined as 36%.
